Experimental data reported in PMC4657054, “First Structural View of a Peptide Interacting with the Nucleotide Binding Domain of Heat Shock Protein 90” (Scientific Reports, 2015).
Residues, ends and D or L forms follow the SMILES beside them. No end group written: not given here.

Tests used:
human Hsp90 [1] = target: T1, human Hsp90 (Homo sapiens, UniProt P07900); assay: ATPase activity of human Hsp90 in presence of peptide; type: biochemical; design: made in house; host or cells: E. coli Rosetta; conditions: human Hsp90 2 μM, 500 μM ATP
Procedure: Lys47 of HspD-NTD is observed to be in a different rotamer conformation as compared to Lys58 of the human isoform, due to the former’s interaction with the residues of the peptide. Lys58 of the human Hsp90 is likely to adopt a similar conformation in the presence of a similar peptide. The water molecules interacting with Asn40 and Asp82 in the case of HspD-NTD are also found to be conserved in human Hsp90-NTD structure. […] In order to validate this, ATPase assay was performed for human Hsp90 in the presence of the modified peptide. […] This observation that the peptide binds to the NTD and inhibits its ATPase activity paves way for the development of new class of peptide-based inhibitors for Hsp90.
(§1) The genes for HspD and HspD-NTD were cloned into pRSET A vector, using the following primers: 5′ […] 3′ as forward primer and 5′ […] 3′ as reverse primer for HspD as described previously, and 5′ […] 3′ as forward primer and 5′[…] 3′ as reverse primer for HspD-NTD, containing BamHI and XhoI sites (underlined) in forward and reverse primers, respectively. The proteins, HspD and HspD-NTD, were expressed as hexa histidine tagged fusion proteins in E. coli Rosetta strain. The cells were grown in Terrific broth and induced with 1 mM isopropyl β-D-1-thiogalactopyranoside at 15 °C for 15 hours. The proteins were purified by nickel-NTA affinity chromatography. The column was washed with imidazole gradient ranging from 5 mM to 30 mM in 50 mM Tris, pH 7.5, 500 mM NaCl, buffer. The proteins were finally eluted with 300 mM imidazole, followed by gel filtration with Sephacryl S-200 HR column and stored in 25 mM Tris and 200 mM NaCl, pH 7.5 buffer. […]
(§2) In order to check the effect of the peptide binding on the ATPase activity of HspD and human Hsp90, purified proteins (2 μM) were incubated with varying peptide concentrations in 40 mM Tris–Cl buffer, pH 7.4, containing 100 mM KCl and 5 mM MgCl2, at room temperature for half hour. […] ATP hydrolysis was monitored on a PEI- cellulose TLC plate. Fractional cleavage of ATP was calculated for each peptide concentration. […]

[2] = target: T2, HspD (Hsp90 of Dictyostelium discoideum) (Dictyostelium discoideum, UniProt P54651); assay: ATPase activity of HspD (pRSET A construct) in presence of peptide; type: biochemical; conditions: for inhibition of ATPase activity of HspD: pre-incubation 0.5 h room temperature, reaction 37 °C 1 h
T2 construct: We had earlier reported the activity studies of the full length protein; hexahistidine tag (N); pRSET A vector linker containing Gly-Arg-Asp-Leu-Tyr-Asp-Asp (N); made in house; host or cells: E. coli Rosetta
Procedure: ATPase assay for HspD was carried out in presence of varying concentrations of the peptide and fixed ATP concentration of 500 μM. In presence of the peptide, there is a significant dose dependent inhibition of ATPase activity of HspD, starting from 5 mM concentration of the peptide (Fig. 5a).
The genes for HspD and HspD-NTD were cloned into pRSET A vector, using the following primers: 5′ […] 3′ as forward primer and 5′ […] 3′ as reverse primer for HspD as described previously, and 5′ […] 3′ as forward primer and 5′[…] 3′ as reverse primer for HspD-NTD, containing BamHI and XhoI sites (underlined) in forward and reverse primers, respectively. The proteins, HspD and HspD-NTD, were expressed as hexa histidine tagged fusion proteins in E. coli Rosetta strain. The cells were grown in Terrific broth and induced with 1 mM isopropyl β-D-1-thiogalactopyranoside at 15 °C for 15 hours. The proteins were purified by nickel-NTA affinity chromatography. The column was washed with imidazole gradient ranging from 5 mM to 30 mM in 50 mM Tris, pH 7.5, 500 mM NaCl, buffer. The proteins were finally eluted with 300 mM imidazole, followed by gel filtration with Sephacryl S-200 HR column and stored in 25 mM Tris and 200 mM NaCl, pH 7.5 buffer. The clone for human Hsp90 in pRSET A vector was expressed in E. coli Rosetta strain, and the protein was purified to homogeneity by nickel-NTA affinity chromatography, as described previously[31] and dialysed to exchange buffer containing 40 mM Tris-Cl, pH 7.5, 100 mM KCl and 5 mM MgCl2 for the ATPase assay. For the new construct the gene for HspD and HspD-NTD were cloned in pET-28a vector, which lacks the bound peptide sequence. The proteins were expressed and purified using the same protocol as described above.
In order to check the effect of the peptide binding on the ATPase activity of HspD and human Hsp90, purified proteins (2 μM) were incubated with varying peptide concentrations in 40 mM Tris–Cl buffer, pH 7.4, containing 100 mM KCl and 5 mM MgCl2, at room temperature for half hour. ATPase reaction was carried out in the presence of fixed ATP concentration of 500 μM at 37 °C for one hour. γ-^32P-ATP with a specific activity of 0.55 Ci/mmol was used as a tracer. ATP hydrolysis was monitored on a PEI- cellulose TLC plate. Fractional cleavage of ATP was calculated for each peptide concentration. ATPase activity of Hsp90 alone was considered 100%, and percent change in ATPase activity was plotted against peptide concentration.

[3] = target: T3, HspD-NTD (pET-28a construct lacking the linker peptide) (Dictyostelium discoideum, UniProt P54651); assay: biochemical; type: binding
T3 construct: the crystal structure of the N-terminal domain of HspD (HspD-NTD); made in house; host or cells: E. coli Rosetta (same protocol)
Procedure: The binding of the peptide RELWDD to HspD-NTD construct lacking the linker peptide was measured by Bio-Layer Interferometry using an Octet RED96 instrument (ForteBio, Inc.). The peptide was immobilized onto Amine Reactive Second-Generation (AR2G) Biosensors. Binding studies were performed by dipping the biosensors in varying concentrations of HspD-NTD. An equal number of unliganded sensors was used as control, to account for non-specific binding. The traces were processed using ForteBio Data Analysis Software, ver. 8.0.3.5, exported and fit globally using Biaevaluation 3.0.1. A simple 1:1 Langmuir interaction model was used for fitting the data.
Figure S1. Binding of HspD-NTD to the peptide RELWDD using Bio-layer Interferometry.
concentrations of the protein.
(1 picture or pasted object on this page, not shown here)

[4] = target: T4, HspD, new construct (pET-28a) (Dictyostelium discoideum, UniProt P54651); assay: ATPase activity of new construct of HspD (pET-28a, lacking the linker peptide sequence) in presence of peptide; type: biochemical; conditions: 13.5 mM peptide (highest concentration), pET-28a construct, 500 μM ATP, mean ± SEM, n = 2
T4 construct: made in house; host or cells: E. coli Rosetta (same protocol)
Procedure: Bio-Layer Interferometry experiments were carried out to check the binding of the peptide RELWDD. […] The peptide can be further modified to improve the binding efficacy, thereby reducing the inhibitory concentration required to inhibit Hsp90 function.
as §1, with “chromatography.” for “chromatography. The column was washed with imidazole gradient ranging from 5 mM to 30 mM in 50 mM Tris, pH 7.5, 500 mM NaCl, buffer. The proteins were finally eluted with 300 mM imidazole, followed by gel filtration with Sephacryl S-200 HR column and stored in 25 mM Tris and 200 mM NaCl, pH 7.5 buffer.”
as §2

[5] = target: T5, N-terminal domain of Hsp90 of Dictyostelium discoideum (HspD-NTD), pRSET A construct (Dictyostelium discoideum, UniProt P54651 1-225); assay: crystal structure; hanging drop, 15 mg/mL HspD-NTD, 0.1 M HEPES pH 7.0-8.0, 10-30% PEG3350; no peptide added, the peptide comes from the vector stretch of the fusion protein; 1.2 Å; conditions: both partners purified
T5 construct: 'a total of 225 residues', the first 214 seen in the density; forward primer starts at the ATG of the gene, reverse primer encodes ...ETTAK-stop; Expressed from pRSET A with a vector stretch (holding GRDLYDD) between the N-terminal hexahistidine tag and the NTD; source: E. coli Rosetta, purified (nickel-NTA, gel filtration on Sephacryl S-200 HR)

[6] = target: new construct of HspD, full length, in pET-28a (Dictyostelium discoideum) (UniProt P54651)
human Hsp90 [7] = target: T1, human Hsp90
[8] = target: Hsp90 of Dictyostelium discoideum (HspD), full length, pRSET A construct (Dictyostelium discoideum) (UniProt P54651)
Hsp90 of Dictyostelium discoideum (HspD), full length, pRSET A construct (Dictyostelium discoideum), sequence (P54651 whole entry): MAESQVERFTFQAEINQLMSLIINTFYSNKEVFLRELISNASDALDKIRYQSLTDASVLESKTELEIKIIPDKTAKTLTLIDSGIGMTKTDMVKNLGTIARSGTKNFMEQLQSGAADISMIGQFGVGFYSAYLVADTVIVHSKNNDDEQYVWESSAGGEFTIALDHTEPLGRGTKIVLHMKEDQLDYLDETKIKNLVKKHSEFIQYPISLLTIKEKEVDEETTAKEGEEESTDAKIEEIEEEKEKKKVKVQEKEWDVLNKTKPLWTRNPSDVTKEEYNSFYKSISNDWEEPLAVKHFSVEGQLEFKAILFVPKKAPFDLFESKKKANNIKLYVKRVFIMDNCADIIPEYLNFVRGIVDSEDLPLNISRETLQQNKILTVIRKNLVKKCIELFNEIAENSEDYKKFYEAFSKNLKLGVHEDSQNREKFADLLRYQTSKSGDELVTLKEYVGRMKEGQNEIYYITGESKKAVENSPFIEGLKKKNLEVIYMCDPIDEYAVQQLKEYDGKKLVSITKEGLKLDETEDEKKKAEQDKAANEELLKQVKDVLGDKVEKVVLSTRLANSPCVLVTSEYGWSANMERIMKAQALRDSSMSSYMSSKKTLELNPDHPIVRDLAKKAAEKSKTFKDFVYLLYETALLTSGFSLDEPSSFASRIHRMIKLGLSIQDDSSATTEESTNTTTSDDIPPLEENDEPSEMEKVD

T2 sequence (P54651 whole entry): as above
T3 sequence (P54651 1-225 limits assumed): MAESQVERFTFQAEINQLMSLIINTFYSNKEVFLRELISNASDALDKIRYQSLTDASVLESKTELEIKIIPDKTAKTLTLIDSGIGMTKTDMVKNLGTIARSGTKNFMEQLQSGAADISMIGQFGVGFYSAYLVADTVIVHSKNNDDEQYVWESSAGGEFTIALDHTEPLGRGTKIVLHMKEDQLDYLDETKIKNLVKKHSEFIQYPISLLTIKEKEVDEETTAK
T4 sequence (P54651 whole entry): as the sequence (P54651 whole entry) above
new construct of HspD, full length, in pET-28a (Dictyostelium discoideum), sequence (P54651 whole entry): as above
T5 sequence (P54651 1-225): as the sequence (P54651 1-225 limits assumed) above

CC(C)C[C@H](NC(=O)[C@H](CCC(=O)O)NC(=O)[C@@H](N)CCCNC(=N)N)C(=O)N[C@@H](Cc1c[nH]c2ccccc12)C(=O)N[C@@H](CC(=O)O)C(=O)N[C@@H](CC(=O)O)C(=O)O [RELWDD, Arg-Glu-Leu-Trp-Asp-Asp] (H-RELWDD-OH)
inhibition of ATPase activity of human Hsp90 (human Hsp90 [1]; 5 mM peptide): 30% | inhibition of ATPase activity of human Hsp90 (human Hsp90 [1]; 10 mM peptide): 55% | ATPase activity of human Hsp90 remaining (Hsp90 alone = 100%) (human Hsp90 [1]; 10 mM peptide, mean ± SEM, n = 2, SEM): 46.91 ± 12.05% | inhibition of ATPase activity of HspD ([2]; 10 mM peptide, HspD 2 μM, 500 μM ATP): 30% | ATPase activity of HspD observed (Hsp90 alone = 100%) ([2]; 13.5 mM peptide (highest concentration), HspD 2 μM, 500 μM ATP, mean ± SEM, n = 5, SEM): 38.50 ± 10.11% | inhibition of ATPase activity of HspD ([2]; 13.5 mM peptide, HspD 2 μM, 500 μM ATP): 60% | KD of binding to HspD-NTD, in words [3]: lower micromolar range | kon ([3]; Bio-Layer Interferometry, peptide immobilized on AR2G biosensors, 1:1 Langmuir model, global fit, mean ± standard deviation, SD): 90.6 ± 46.6 M⁻¹ s⁻¹ | Kd ([3]; SD): 28.2 ± 14.6 µM | ATPase activity of new construct of HspD observed (Hsp90 alone = 100%) [4]: 50.60 ± 4.68%

GRDLYDD [GRDLYDD, purchased synthetic peptide]
change in ATPase activity of HspD in the presence of the peptide ([2]; 100 μM-13.5 mM peptide, HspD 2 μM, 500 μM ATP, 37 °C, 1 h, γ-32P-ATP, TLC): no significant change | ATPase inhibition of HspD, in words ([2]; summary statement): no inhibition whatsoever

B1: heptapeptide Gly-Arg-Asp-Leu-Tyr-Asp-Asp (peptide)
peptide: GRDLYDD
notes: numbered from -14 to -8 starting from Gly; No peptide was added for the crystal; also called GRDLYDD; the peptide; source: for the ATPase assay: synthetic peptide, bought: Custom peptide synthesis, USV Limited, Mumbai
binding result [5]: binds

RELWDD (not fully specified) [modified hexapeptide Arg-Glu-Leu-Trp-Asp-Asp]
percent ATPase activity left of the new construct of HspD (pET-28a) with rising peptide RELWDD, at the highest concentration of 13.5 mM [6]: 50.6% | percent inhibition of ATPase activity of human Hsp90 (2 μM) with rising peptide RELWDD, 30% at 5 mM, highest at 10 mM (human Hsp90 [7]): 55% | percent inhibition of ATPase activity of HspD (2 μM, 500 μM ATP) with rising peptide RELWDD, inhibition from 5 mM, 30% at 10 mM, highest at 13.5 mM [8]: 60%
